Results on 36 compounds are retold here after patent publication US20050227980A1, “Aralkyl and aralkylidene heterocyclic lactam and imides” (Pfizer Inc., priority 2003, published 2005).

As usually defined, the melting point is the temperature, or range, at which the solid turns liquid.

Structures can show the parent of a compound that is named as a salt.

On to `CN1CCN(c2cc(Cl)ccc2CC2OCCN(c3ccc(C(C)(C)C)cc3)C2=O)CC1.Cl` (stereo not drawn) [Example 27 (+)], for which the melting point was 159.5 to 161.7 °C. In turn, `CN1CCN(c2cccc(Cl)c2C=C2OCCN(c3ccc(C(C)(C)C)cc3)C2=O)CC1.Cl` gave a melting point of 139 to 142 °C. As to `CN1CCN(c2cc(Cl)ccc2CC2OCCN(c3ccc(C(C)(C)C)cc3)C2=O)CC1.Cl` (stereo not drawn) [Example 27 (−)], the melting point fell in the range of 159 to 161.8 °C. As to `CN1CCN(c2cc(F)ccc2CC2OCCN(c3ccc(C(C)(C)C)cc3)C2=O)CC1.Cl` (racemic) [Example 29 (±)], the melting point fell in the range of 155.9 to 159.9 °C. For the compound `CN1CCN(c2ccc(C(F)(F)F)cc2CC2OCCN(c3ccc(C(C)(C)C)cc3)C2=O)CC1.Cl` (stereo not drawn) [Example 32 (−)], the melting point fell in the range of 128 to 130 °C.

Take `CC1CN(c2ccccc2CC2OCCN(c3ccc(C(C)(C)C)cc3)C2=O)CC(C)N1C.Cl` (racemic): the melting point is 135 °C (dec.). In turn, `CN1CCN(c2cc(Cl)ccc2C=C2OCCN(c3ccc(C(C)(C)C)cc3)C2=O)CC1` [Example 10, 4-(4-tert-Butyl-phenyl)-2-[4-chloro-2-(4-methylpiperazin-1-yl)-benzylidene]-morpholin-3-one] showed a melting point of 209 to 210.8 °C. In turn, `CC(C)c1ccc(N2CCOC(Cc3ccccc3N3CCN(C)CC3)C2=O)cc1.Cl` (racemic) came in with a melting point of 185.7 to 188.1 °C. `CC(C)c1ccc(N2CCOC(=Cc3ccccc3N3CCN(C)CC3)C2=O)cc1` [Example 3, 2-[2-(4-Methylpiperazin-1-yl)-benzylidene]-4-(4-isopropylphenyl)-morpholin-3-one] yielded a melting point of 155 to 156 °C.

In turn, `CN1CCN(c2ccc(C(F)(F)F)cc2CC2OCCN(c3ccc(C(C)(C)C)cc3)C2=O)CC1` (racemic) [Example 32 (±), (±)-4-(4-tert-Butyl-phenyl)-2-[2-(4-methylpiperazin-1-yl)-5-trifluoromethyl-benzyl]-morpholin-3-one] registered a melting point of 145.1 to 146.2 °C.

Consider `CN1CCN(c2ccccc2CC2OCCN(c3ccc(-c4ccccc4)cc3)C2=O)CC1.Cl` (racemic), for which the melting point fell in the range of 219.4 to 222.2 °C.

`CN1CCN(c2cc(F)ccc2CC2OCCN(c3ccc(C(C)(C)C)cc3)C2=O)CC1.Cl` (stereo not drawn) [Example 29 (+)] returned a melting point of 157.4 to 159.6 °C. To `CN1CCN(c2ccccc2CC2OCCN(c3ccc(C(C)(C)C)cc3)C2=O)CC1.Cl` (single isomer, unassigned) [Example 24 (+)] belongs 165.8 to 171.2 °C.

As for `CN1CCN(c2ccccc2C=C2OCCN(c3ccc(C(C)(C)C)cc3)C2=O)CC1` [Example 5, 2-[2-(4-Methylpiperazin-1-yl)-benzylidene]-4-(4-tert-butylphenyl)-morpholin-3-one], the melting point fell in the range of 169 to 171 °C. Regarding `CN1CCN(c2c(F)cccc2CC2OCCN(c3ccc(C(C)(C)C)cc3)C2=O)CC1.Cl` (racemic) [Example 30 (±)], the melting point fell in the range of 107 to 108.7 °C.

`CC1CN(c2ccccc2C=C2OCCN(c3ccc(C(C)(C)C)cc3)C2=O)CC(C)N1C` (stereo not drawn) [Example 6, 2-[2-(3,4,5-Trimethylpiperazin-1-yl)-benzylidene]-4-(4-tert-butylphenyl)-morpholin-3-one]: the melting point is 167 to 168 °C.

For `CN1CCN(c2cccc(Cl)c2CC2OCCN(c3ccc(C(C)(C)C)cc3)C2=O)CC1.Cl` (racemic), the melting point is 215 °C (dec.).

For the compound `CN1CCN(c2cccc(F)c2CC2OCCN(c3ccc(C(C)(C)C)cc3)C2=O)CC1.Cl` (stereo not drawn) [Example 28 (−)], the melting point fell in the range of 178 to 181.4 °C.

As to `CN1CCN(c2ccccc2CC2OCCN(Cc3ccc(C(C)(C)C)cc3)C2=O)CC1.Cl` (racemic), the melting point was in the range of 215 to 216 °C. On to `CN1CCN(c2cccc(F)c2CC2OCCN(c3ccc(C(C)(C)C)cc3)C2=O)CC1.Cl` (stereo not drawn) [Example 28 (+)], for which the melting point lay in the range of 176.9 to 179.3 °C. Then `CN1CCN(c2ccc(C(F)(F)F)cc2CC2OCCN(c3ccc(C(C)(C)C)cc3)C2=O)CC1.Cl` (stereo not drawn) [Example 32 (+)], with 136 to 138 °C; and `CN1CCN(c2ccccc2C=C2OCCN(Cc3ccc(C(C)(C)C)cc3)C2=O)CC1` [Example 20, 4-(4-tert-Butyl-benzyl)-2-[2-(4-methylpiperazin-1-yl)-benzylidene]-morpholin-3-one], with 68 to 70 °C. Compound `CN1CCN(c2cc(F)ccc2CC2OCCN(c3ccc(C(C)(C)C)cc3)C2=O)CC1.Cl` (stereo not drawn) [Example 29 (−)] had a melting point of 156.2 to 158.1 °C. For `Cc1ccc(N2CCN(C)CC2)c(CC2OCCN(c3ccc(C(C)(C)C)cc3)C2=O)c1` (single isomer, unassigned; (+)) [Example 31 (+), (+)-4-(4-tert-Butyl-phenyl)-2-[5-methyl-2-(4-methylpiperazin-1-yl)-benzyl]-morpholin-3-one], the melting point fell in the range of 92 to 93 °C.

On to `Cc1ccc(N2CCN(C)CC2)c(CC2OCCN(c3ccc(C(C)(C)C)cc3)C2=O)c1` (single isomer, unassigned; (-)) [Example 31 (−), (−)-4-(4-tert-Butyl-phenyl)-2-[5-methyl-2-(4-methylpiperazin-1-yl)-benzyl]-morpholin-3-one], for which the melting point was in the range of 86 to 88 °C. Then `CN1CCN(c2cccc(F)c2CC2OCCN(c3ccc(C(C)(C)C)cc3)C2=O)CC1.Cl` (racemic) [Example 28 (±)], with 190.5 to 192.1 °C; and `CN1CCN(c2c(F)cccc2C=C2OCCN(c3ccc(C(C)(C)C)cc3)C2=O)CC1` [Example 12, 4-(4-tert-Butyl-phenyl)-2-[3-fluoro-2-(4-methylpiperazin-1-yl)-benzylidene]-morpholin-3-one], with 184.3 to 187.1 °C.

Compound `CN1CCN(c2ccccc2CC2OCCN(c3ccc(C(C)(C)C)cc3)C2=O)CC1.Cl` (single isomer, unassigned) [Example 24 (−)] had a melting point of 187.1 to 191.2 °C. For `CN1CCN(c2c(F)cccc2CC2OCCN(c3ccc(C(C)(C)C)cc3)C2=O)CC1.Cl` (stereo not drawn) [Example 30 (+)], the melting point is 104.7 °C (dec.). Then `CN1CCN(c2ccccc2CC2OCCN(c3ccc(C(C)(C)C)cc3)C2=O)CC1` (racemic) (as salt: tartrate) [Example 23, (±)-4-(4-tert-Butyl-phenyl)-2-[2-(4-methylpiperazin-1-yl)-benzyl]-morpholin-3-one], with 179 to 180 °C (dec.).

Consider `CN1CCN(c2cccc(C(F)(F)F)c2C=C2OCCN(c3ccc(C(C)(C)C)cc3)C2=O)CC1.Cl`, for which the melting point was 205 °C (dec.). On to `CN1CCN(c2cc(C(F)(F)F)ccc2C=C2OCCN(c3ccc(C(C)(C)C)cc3)C2=O)CC1` [Example 14, 4-(4-tert-Butyl-phenyl)-2-[2-(4-methylpiperazin-1-yl)-4-trifluoromethyl-benzylidene]-morpholin-3-one], for which the melting point was in the range of 186.3 to 191.9 °C. Turning to `CN1CCN(c2cc(Cl)ccc2CC2OCCN(c3ccc(C(C)(C)C)cc3)C2=O)CC1` (racemic) [Example 27 (±), (±)-4-(4-tert-Butyl-phenyl)-2-[4-chloro-2-(4-methylpiperazin-1-yl)-benzyl]-morpholin-3-one], the melting point was in the range of 161.9 to 163.5 °C. To `Cc1ccc(N2CCN(C)CC2)c(C=C2OCCN(c3ccc(C(C)(C)C)cc3)C2=O)c1` [Example 15, 4-(4-tert-Butyl-phenyl)-2-[5-methyl-2-(4-methylpiperazin-1-yl)-benzylidene]-morpholin-3-one] belongs 209.2 to 211 °C; to `CN1CCN(c2c(F)cccc2CC2OCCN(c3ccc(C(C)(C)C)cc3)C2=O)CC1.Cl` (stereo not drawn) [Example 30 (−)], 128.5 to 129.9 °C; to `CN1CCN(c2cccc(F)c2C=C2OCCN(c3ccc(C(C)(C)C)cc3)C2=O)CC1.Cl`, 187.5 to 192.6 °C.
